What was measured:
iC9 safety switch = molecular target: T1, iC9 safety switch (Homo sapiens, UniProt P62942, F37V); assay: iC9 safety switch test: viability by flow cytometry using 7-AAD after AP1903; type: cell-based
T1 construct: expressed in transfected cells
Text: Human pan T-cells were nucleofected using an Amaxa 4D nucleofector with one of four piggyBac transposons. Modified T cells receiving the “mock” condition were nucleofected with an empty piggyBac transposon. Modified T cells received either a piggyBac transposon containing a therapeutic agent alone (a sequence encoding a CARTyrin) or a piggyBac transposon containing an integrated iC9 sequence and a therapeutic agent (a sequence encoding a CARTyrin).
To test the iC9 safety switch, each of the four modified T cells were incubated for 24 hours with 0, 0.1 nM, 1 nM, 10 nM, 100 nM or 1000 nM AP1903 (an induction agent for […]). Viability was assessed by flow cytometry using 7-aminoactinomycin D (7-AAD), a fluorescent intercalator, as a marker for cells undergoing apoptosis.
Cell viability was assessed at day 12 (see FIG. 9). […] Moreover, cell viability was assessed at day 19 (see FIG. 10). […]
A quantification of the aggregated results was performed and is provided in FIG. 11, showing the significant impact of the iC9 safety switch on the percent cell viability as a function of the concentration of the induction agent (AP1903) of the iC9 switch for each modified cell type at either day 12 (FIG. 9 and left graph) or day 19 (FIG. 10 and right graph).

Pan T cells = assay: Expansion of BCMA CAR-T cells with CSR over 19 day culture; type: cell-based, human; conditions: CSR transient (mRNA) or stable (piggyBac)
Text: FIG. 36 is a graph showing that delivery of CSR enhances the expansion of CAR-T cells. CSRs were delivered to CAR-T cells either transiently by mRNA or stably by piggyBac™. Pan T cells isolated from the blood of a normal donor were genetically modified using the piggyBac™ DNA modification system and the standard Poseida process. Cells were co-electroporated in a single reaction with mRNA encoding the Super piggyBac transposase enzyme (SPB), a transposon encoding a BCMA CAR and selection gene, along with an additional mRNA encoding a CSR (either CD28z or CD2z; resulting in transient expression) or a CD19 mRNA control, or, with a transposon encoding a BCMA CAR, selection gene and a CSR (either CD28z or CD2z; resulting in stable expression). The cells were subsequently stimulated with agonist mAbs anti-CD2, anti-CD3 and anti-CD28, and were later selected for genetic modification over the course of a 19 day culture period. At the end of the initial culture period all T cells expressed the CAR, indicating successful selection for genetically-modified cells (data not shown). Bars represent total live CAR-T cells in well and numbers indicate fold-enhancement of expansion above CAR-T cells produced in the absence of a CSR or a CD19 mRNA control.

cells [1] = assay: AP1903 amount for effective signaling of cells in vitro; type: cell-based; conditions: 1600 Da MW
Method: The fixed dose of AP1903 for injection used, for example, may be 0.4 mg/kg intravenously infused over 2 hours. The amount of AP1903 needed in vitro for effective signaling of cells is 10-100 nM (1600 Da MW). This equates to 16-160 μg/L or 0.016-1.6 μg/kg (1.6-160 μg/kg). Doses up to 1 mg/kg were well-tolerated in the Phase I study of AP1903 described above. Therefore, 0.4 mg/kg may be a safe and effective dose of AP1903 for this Phase I study in combination with the therapeutic cells.

cells [2] = conditions: cited from earlier work
[3] = cited from earlier work

T1 sequence (P62942 with tags, fused parts or gaps F37V): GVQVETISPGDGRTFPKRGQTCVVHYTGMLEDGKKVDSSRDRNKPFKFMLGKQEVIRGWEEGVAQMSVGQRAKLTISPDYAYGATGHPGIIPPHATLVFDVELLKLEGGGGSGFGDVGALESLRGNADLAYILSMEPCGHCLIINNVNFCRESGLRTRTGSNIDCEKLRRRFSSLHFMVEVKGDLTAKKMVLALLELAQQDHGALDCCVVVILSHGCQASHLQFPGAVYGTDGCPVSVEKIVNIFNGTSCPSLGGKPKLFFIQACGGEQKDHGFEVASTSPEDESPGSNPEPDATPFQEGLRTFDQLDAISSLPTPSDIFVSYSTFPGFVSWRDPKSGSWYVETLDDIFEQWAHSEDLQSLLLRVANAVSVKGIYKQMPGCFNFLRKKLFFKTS

iC9 safety switch: ligand binding region (FKBP12 F36V), a linker, and a truncated caspase 9 polypeptide (SEQ ID NO: 18032)
apoptosis induced by presence of the iC9 safety switch (iC9 safety switch; with induction agent AP1903, by day 12 post-nucleofection): induces apoptosis in a significant majority of cells

CD28z CSR: chimeric stimulatory receptor: wild type CD28 and CD3z intracellular stimulation domain, SEQ ID NO: 17910
expansion of CAR-T cells (Pan T cells): a greater degree of expansion of the CAR-T cells

CC[C@H](C(=O)N1CCCC[C@H]1C(=O)O[C@H](CCc1ccc(OC)c(OC)c1)c1cccc(OCC(=O)NCCNC(=O)COc2cccc([C@@H](CCc3ccc(OC)c(OC)c3)OC(=O)[C@@H]3CCCCN3C(=O)[C@@H](CC)c3cc(OC)c(OC)c(OC)c3)c2)c1)c1cc(OC)c(OC)c(OC)c1 (relative stereo) [AP1903, 2-Piperidinecarboxylic acid, 1-[(2S)-1-oxo-2-(3,4,5-trimethoxyphenyl)butyl]-, 1,2-ethanediylbis[imino(2-oxo-2,1-ethanediyl)oxy-3,1-phenylene[(1R)-3-(3,4-dimethoxyphenyl)propylidene]]ester, [2S-[1(R*),2R*[S*[S*[1(R*),2R*]]]]]-(9C1)]
amount needed in vitro for effective signaling of cells, converted (cells [1]): 16 to 160 µg/L | concentration at which AP1903 induces apoptosis (lowest concentration of the study) (iC9 safety switch; T cells containing iC9 construct, 24 hours incubation): ≤ 0.1 nM | amount needed in vitro for effective signaling of cells (cells [2]): 10 to 100 nM | safety and tolerability ([3]; 0.01, 0.05, 0.1, 0.5 and 1.0 mg/kg IV over 2 hours): safe and well tolerated at all dose levels | mean Cmax ([3]; 0.01-1.0 mg/kg infused IV over 2 hours, healthy volunteers): 10 to 1275 ng/mL | plasma levels versus dose ([3]; 0.01-1.0 mg/kg): directly proportional to dose | well-tolerated dose ([3]; Phase I study): up to 1 mg/kg | plasma level as % of maximal concentration, 0.5 hours post-dose ([3]; after initial infusion period): approximately 18% | plasma level as % of maximal concentration, 2 hours post-dose ([3]; after initial infusion period): ~7% | plasma level as % of maximal concentration, 10 hours post-dose ([3]; after initial infusion period): ~1% | pharmacokinetic profile ([3]; human, in vivo): favorable pharmacokinetic profile

B1: CD2z CSR: chimeric stimulatory receptor: wild type CD2 and CD3z intracellular stimulation domain, SEQ ID NO: 17912 (protein)
chain: MSFPCKFVASFLLIFNVSSKGAVSKEITNALETWGALGQDINLDIPSFQMSDDIDDIKWEKTSDKKKIAQFRKEKETFKEKDTYKLFKNGTLKIKHLKTDDQDIYKVSIYDTKGKNVLEKIFDLKIQERVSKPKISWTCINTTLTCEVMNGTDPELNLYQDGKHLKLSQRVITHKWTTSLSAKFKCTAGNKVSKESSVEPVSCPEKGLDIYLIIGICGGGSLLMVFVALLVFYITKRKKQRSRRNDEELETRAHRVATEERGRKPHQIPASTPQNPATSQHPPPPPGHRSQAPSHRPPPPGHRVQHQPQKRPPAPSGTQVHQQKGPPLPRPRVQPKPPHGAAENSLSPSSNRVKFSRSADAPAYKQGQNQLYNELNLGRREEYDVLDKRRGRDPEMGGKPRRKNPQEGLYNELQKDKMAEAYSEIGMKGERRRGKGHDGLYQGLSTATKDTYDALHMQALPPR
expansion of CAR-T cells (Pan T cells): a greater degree of expansion of the CAR-T cells
